Test systems include CCRF-CEM leukemia; HCT-116 colon; OVCAR-4 ovarian; PC-3 prostate; RPMI-8226 leukemia; SF-295 CNS; SK-MEL-2 melanoma; SNB-19 CNS; TK-10 renal; U251 CNS.
Assay in all cases: growth of human tumour cells (NCI), 48 h

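Grown in 96-well plates, cells were treated for 48 hours with each compound at five concentrations. Insufficient inhibition: endpoint recorded as highest concentration tested. At the GI50, growth is halved. TGI denotes the concentration required for complete inhibition of growth.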 A value given as a limit tells only on which side of the number the result lay.

As to `CNC(=O)Cc1nc(-c2cccc(NS(=O)(=O)c3c(F)cccc3F)c2F)c(-c2ccnc(Nc3ccccc3)n2)s1`, the GI50 with CCRF-CEM leukemia was 11.3 µM; in the experiment on HCT-116 colon, 1.05 µM; in the experiment with OVCAR-4 ovarian it was above 33.8 µM; in the experiment with PC-3 prostate, 20.9 µM; in the experiment with RPMI-8226 leukemia it was 14.3 µM; with SF-295 CNS, 20.5 µM. Moreover, the GI50 with SK-MEL-2 melanoma was 0.419 µM; in the experiment with SNB-19 CNS, 14.3 µM; in the experiment with TK-10 renal, 3.02 µM; with U251 CNS, 22.7 µM. Further, the TGI in the experiment with CCRF-CEM leukemia is above 50 µM; in the experiment with HCT-116 colon, above 29.2 µM; in the experiment with OVCAR-4 ovarian it was above 50 µM; with PC-3 prostate, above 50 µM; in the experiment with RPMI-8226 leukemia, above 47.9 µM; in the experiment with SF-295 CNS, above 50 µM. Besides, the TGI in the experiment with SK-MEL-2 melanoma was above 46 µM; in the experiment on SNB-19 CNS, above 50 µM; with TK-10 renal, above 40.7 µM; with U251 CNS, above 50 µM.

For `Nc1ccn(C2OC(COC(=O)C34CC5CC(CC(C5)C3)C4)C(O)C2O)c(=O)n1` (stereo unspecified), the TGI in the experiment with CCRF-CEM leukemia is 1.87 µM; in the experiment on HCT-116 colon, above 100 µM; with OVCAR-4 ovarian it was above 100 µM; in the experiment on PC-3 prostate, above 100 µM; with RPMI-8226 leukemia it was above 100 µM; in the experiment with SF-295 CNS, above 100 µM. In addition, the TGI in the experiment on SK-MEL-2 melanoma, with SNB-19 CNS, with TK-10 renal and with U251 CNS was above 100 µM in each case.

Consider `CN(Cc1cc(Cl)cc(Cl)c1)CC(C(=O)c1ccccc1)c1ccccc1` (stereo unspecified), for which the TGI was 2.36 µM in the experiment with HCT-116 colon; 12.4 µM in the experiment with OVCAR-4 ovarian; 29.3 µM in the experiment on PC-3 prostate; above 100 µM in the experiment with RPMI-8226 leukemia; above 100 µM with SF-295 CNS; 29.7 µM in the experiment on SK-MEL-2 melanoma. In addition, the TGI with SNB-19 CNS was above 53 µM; in the experiment with TK-10 renal, 23 µM; in the experiment with U251 CNS, 4.17 µM.

`COc1cccc(C2c3cc4c(cc3OC(N3CCCC3)C2C)OCO4)c1O` (stereo unspecified): the TGI in the experiment with CCRF-CEM leukemia is above 100 µM; in the experiment with HCT-116 colon it was 35 µM; with OVCAR-4 ovarian, above 94.2 µM; with PC-3 prostate, 73.5 µM; in the experiment with RPMI-8226 leukemia, 27.9 µM; in the experiment on SF-295 CNS, 15.4 µM. The TGI in the experiment on SK-MEL-2 melanoma was 30.4 µM; in the experiment on SNB-19 CNS, above 100 µM; in the experiment on TK-10 renal, 40.1 µM; with U251 CNS it was 25.8 µM.

As to `COc1ccc(OC)c2c1[nH]c(=O)c1c3ncccc3cn21`, the GI50 is 3.32 µM with CCRF-CEM leukemia; 1.85 µM in the experiment on HCT-116 colon; 3.56 µM in the experiment on OVCAR-4 ovarian; 4.73 µM with PC-3 prostate; 6.78 µM in the experiment with RPMI-8226 leukemia; 2.92 µM in the experiment on SF-295 CNS. The GI50 in the experiment on SK-MEL-2 melanoma is 7.17 µM; with SNB-19 CNS it was 5.6 µM; in the experiment with TK-10 renal, 4.07 µM; in the experiment on U251 CNS it was 3.63 µM. The TGI in the experiment on CCRF-CEM leukemia was above 100 µM; with HCT-116 colon it was 13.2 µM; in the experiment with OVCAR-4 ovarian, 17.2 µM; in the experiment on PC-3 prostate, above 100 µM; with RPMI-8226 leukemia it was above 100 µM; in the experiment with SF-295 CNS, above 100 µM. Further, the TGI in the experiment on SK-MEL-2 melanoma is above 100 µM; in the experiment on SNB-19 CNS, above 100 µM; in the experiment with TK-10 renal it was 13.6 µM; with U251 CNS, 27.8 µM.

For the molecule `COc1nc(N)nc2c1ncn2C1OC(CO)C(O)C1O` (stereo unspecified), the GI50 was 8.46 µM with CCRF-CEM leukemia; above 5000 µM with HCT-116 colon; above 5000 µM in the experiment on OVCAR-4 ovarian; above 5000 µM in the experiment on PC-3 prostate; 3580 µM in the experiment with RPMI-8226 leukemia; above 5000 µM with SF-295 CNS. The GI50 in the experiment on SK-MEL-2 melanoma is 2570 µM; in the experiment on SNB-19 CNS it was above 5000 µM; with TK-10 renal it was above 5000 µM; in the experiment on U251 CNS, above 5000 µM. Further, the TGI in the experiment on HCT-116 colon, in the experiment on OVCAR-4 ovarian, in the experiment on PC-3 prostate, with RPMI-8226 leukemia, in the experiment on SF-295 CNS and in the experiment with SK-MEL-2 melanoma was above 5000 µM in each case. The TGI in the experiment on SNB-19 CNS, in the experiment with TK-10 renal and in the experiment on U251 CNS was above 5000 µM throughout.

In the case of `O=C1C=CC(=O)c2cc(Sc3ccccc3)c(=O)ccc21`, the TGI with CCRF-CEM leukemia was 9.43 µM; in the experiment with HCT-116 colon, 42.6 µM; with OVCAR-4 ovarian, 23.2 µM; with PC-3 prostate, 33.2 µM; with RPMI-8226 leukemia, 14.9 µM; with SF-295 CNS, 27.6 µM. Besides, the TGI in the experiment with SK-MEL-2 melanoma is 28.7 µM; in the experiment with SNB-19 CNS, 38.1 µM; in the experiment with TK-10 renal, 32.2 µM; in the experiment with U251 CNS, 38.5 µM.

Take `O=C(/C=C/c1ccccc1)n1c(-c2ccc(Cl)cc2)nc2ccccc21`: the GI50 in the experiment with CCRF-CEM leukemia was 0.731 µM; in the experiment on HCT-116 colon, 1.21 µM; in the experiment on OVCAR-4 ovarian it was 3.01 µM; in the experiment with PC-3 prostate, 1.91 µM; in the experiment on RPMI-8226 leukemia it was 0.614 µM; in the experiment on SF-295 CNS, 2.5 µM. In addition, the GI50 is 2.1 µM in the experiment on SK-MEL-2 melanoma, 3.13 µM in the experiment with SNB-19 CNS, 2.35 µM in the experiment with TK-10 renal and 1.6 µM with U251 CNS. Also, the TGI was determined as 3.45 µM with CCRF-CEM leukemia; 2.88 µM with HCT-116 colon; 16.7 µM in the experiment on OVCAR-4 ovarian; 6.73 µM in the experiment with PC-3 prostate; 3.82 µM in the experiment on RPMI-8226 leukemia; 6.46 µM in the experiment with SF-295 CNS. Moreover, the TGI in the experiment with SK-MEL-2 melanoma turned out to be 4.35 µM; in the experiment on SNB-19 CNS, 12.8 µM; in the experiment with TK-10 renal, 7.93 µM; in the experiment on U251 CNS, 3.22 µM.

Consider `COc1cccc(/C=C/C(=O)c2ccc(Cl)cc2Cl)c1`, for which the GI50 in the experiment on HCT-116 colon is 4.94 µM; with OVCAR-4 ovarian it was 10.9 µM; in the experiment with PC-3 prostate, 8.92 µM; with RPMI-8226 leukemia it was 1.1 µM; in the experiment with SF-295 CNS, 28.2 µM; in the experiment on SK-MEL-2 melanoma it was 20.3 µM. In addition, the values for the GI50 with SNB-19 CNS, in the experiment on TK-10 renal and in the experiment on U251 CNS were 8.07 µM, 12.8 µM and 9.19 µM, respectively. Moreover, the TGI was 19.1 µM in the experiment with HCT-116 colon; 41 µM in the experiment with OVCAR-4 ovarian; 20.9 µM in the experiment with PC-3 prostate; 3.86 µM in the experiment on RPMI-8226 leukemia; above 50 µM in the experiment on SF-295 CNS; above 50 µM with SK-MEL-2 melanoma. The TGI in the experiment on SNB-19 CNS is 16.8 µM; in the experiment on TK-10 renal it was above 50 µM; with U251 CNS it was above 50 µM.

These data come from PubChem BioAssay (NCI).
